The subject of one assay is HCV Genotype 1B Replicon. Put plainly: Replicon assay, genotype 1b subgenomic replicon (ET cell line), luciferase readout. Type of assay: cell-based. As to conditions: Hepatitis C virus, 48 h, Table 3; luciferase activity after 48 hours. The method, then: (§1) Compounds were assayed for activity against HCV using the genotype 1a and 1b subgenomic replicon model systems. Stable cell lines bearing the genotype 1a and 1b replicons were used for screening of compounds. Both replicons are bicistonic and contain the firefly luciferase gene. The ET cell line is stably transfected with RNA transcripts harboring a I389luc-ubi-neo/NS3-3′/ET replicon with firefly luciferase-ubiquitin-neomycin phosphotransferase fusion protein and EMCV-IRES driven NS3-5B polyprotein containing the cell culture adaptive mutations (E1202G; T12801; K1846T) (Krieger at al, 2001 and unpublished). The genotype 1a replicon is a stable cell line licensed from Apath LLC, modified to contain the firefly luciferase gene. The cells were grown in DMEM, supplemented with 10% fetal calf serum, 2 mM Glutamine, Penicillin (100 IU/mL)/Streptomycin (100 μg/mL), 1× nonessential amino acids, and 250-500 μg/mL G418 (“Geneticin”). They were all available through Life Technologies (Bethesda, Md.). The cells were plated at 0.5×10^4 cells/well in 384 well plates containing compounds. The final concentration of compounds ranged between 0.03 μM to 50 μm and the final DMSO concentration of 0.5-1%.
(§2) Luciferase activity was measured 48 hours later by adding a Steady glo (Promega, Madison, Wis.). Percent inhibition of replication data was plotted relative to no compound control. Under the same condition, cytotoxicity of the compounds was determined using cell titer glo (Promega, Madison, Wis). IC50s were determined from a 10 point dose response curve using 3-4-fold serial dilution for each compound, which spans a concentration range >1000 fold. BioAssay determines the level of inhibition for each compound by normalizing cross-talk corrected plate values against the negative […] controls to determine Percent Inhibition:
(§3) These normalized values are exported to EC50 where they are plotted against the molar compound concentrations using the standard four parameter logistic equation: […]
(§4) Some EC50 measurements were repeated a second time and for both 1A and 1B genotypes after those reported in Table 2 for compounds 101-108 and the repeated data was reported in Table 3.
(In general: In antiviral work, replicon cells carry a viral genome segment that copies itself.)

In a further assay the test system is HCV Genotype 1A Replicon. Description: Replicon assay, genotype 1a subgenomic replicon, luciferase readout. The note with it: Hepatitis C virus, 48 h, Table 3; luciferase activity after 48 hours. Type of assay: cell-based. The method, then: as §1, §2, §3, §4

The structures appear in SMILES notation.

By EC50 is commonly meant the concentration at which the effect is half-maximal. For the compound `C[C@H]1C[C@@H](N2CCOC2=O)CCN1C(=O)c1nc2c(C(F)(F)F)cc(-c3ccoc3)cn2c1Cl` (racemic) [Compound 205, (±) cis-3-(1-{[3-chloro-6-(3-furanyl)-8-(trifluoromethyl)imidazo[1,2-a]pyridin-2-yl]carbonyl}-2-methyl-4-piperidinyl)-1,3-oxazolidin-2-one], the EC50 with HCV Genotype 1B Replicon worked out at 1760 nM; in the assay with HCV Genotype 1A Replicon, 1070 nM.

With `C[C@@H]1C[C@@H](N2CCOC2=O)CCN1C(=O)c1nc2c(C(F)(F)F)cc(-c3ccoc3)cn2c1Cl` (racemic) [Compound 206, (±) trans-3-(1-{[3-chloro-6-(3-furanyl)-8-(trifluoromethyl)imidazo[1,2-a]pyridin-2-yl]carbonyl}-2-methyl-4-piperidinyl)-1,3-oxazolidin-2-one], the EC50 with HCV Genotype 1B Replicon was 140 nM; in the assay with HCV Genotype 1A Replicon, 70 nM. On to `O=C(c1nc2c(C(F)(F)F)cc(-c3ccoc3)cn2c1Cl)N1CC[C@@H](N2CCOC2=O)[C@H](O)C1` (racemic) [Compound 212, (±) trans-3-(1-{[3-chloro-6-(3-furanyl)-8-(trifluoromethyl)imidazo[1,2-a]pyridin-2-yl]carbonyl}-3-hydroxy-4-piperidinyl)-1,3-oxazolidin-2-one], for which the EC50 with HCV Genotype 1B Replicon turned out to be 80 nM; in the assay with HCV Genotype 1A Replicon, 50 nM. The corresponding values for `CC(C)Cc1cc(C(F)(F)F)c2nc(C(=O)N3CC[C@H](N4CCOC4=O)[C@@H](O)C3)c(Cl)n2c1` (racemic) [Compound 215, (±) trans-3-(1-{[3-chloro-6-(2-methylpropyl)-8-(trifluoromethyl)imidazo[1,2-a]pyridin-2-yl]carbonyl}-3-hydroxy-4-piperidinyl)-1,3-oxazolidin-2-one] are 350 nM and 90 nM. The corresponding values for `O=C(c1nc2c(C(F)(F)F)cc(Br)cn2c1Cl)N1CC[C@H](N2CCOC2=O)[C@@H](O)C1` (racemic) [Compound 219, (±) trans-3-(1-{[6-bromo-3-chloro-8-(trifluoromethyl)imidazo[1,2-a]pyridin-2-yl]carbonyl}-3-hydroxy-4-piperidinyl)-1,3-oxazolidin-2-one] are 580 nM and 150 nM. The corresponding values for `O=C(c1nc2c(C(F)(F)F)cc(Br)cn2c1Cl)N1CC[C@H](N2C(=O)COC2=O)[C@@H](O)C1` (racemic) [Compound 222, (±) trans-3-(1-{[6-bromo-3-chloro-8-(trifluoromethyl)imidazo[1,2-a]pyridin-2-yl]carbonyl}-3-hydroxy-4-piperidinyl)-1,3-oxazolidine-2,4-dione] are 20 nM and 940 nM.

`O=C(c1nc2c(C(F)(F)F)cc(-c3ccoc3)cn2c1Cl)N1CC[C@H](N2C(=O)COC2=O)[C@@H](O)C1` (racemic) [Compound 223, (±) trans-3-(1-{[3-chloro-6-(3-furanyl)-8-(trifluoromethyl)imidazo[1,2-a]pyridin-2-yl]carbonyl}-3-hydroxy-4-piperidinyl)-1,3-oxazolidine-2,4-dione]: the EC50 in the assay on HCV Genotype 1B Replicon is 810 nM; in the assay on HCV Genotype 1A Replicon, 1580 nM. `O=C(c1nc2c(C(F)(F)F)cc(C3CC3)cn2c1Cl)N1CC[C@H](N2C(=O)COC2=O)[C@@H](O)C1` (racemic) [Compound 224, (±) trans-3-(1-{[3-chloro-6-cyclopropyl-8-(trifluoromethyl)imidazo[1,2-a]pyridin-2-yl]carbonyl}-3-hydroxy-4-piperidinyl)-1,3-oxazolidine-2,4-dione]: the results for the EC50 in the assay on HCV Genotype 1B Replicon and with HCV Genotype 1A Replicon were 210 nM and 1430 nM, respectively. The corresponding values for `O=C(c1nc2c(C(F)(F)F)cc(C3CC3)cn2c1Cl)N1CC[C@H](N2CCCC2=O)[C@@H](O)C1` (racemic) [Compound 225, (±) trans-1-(1-{[3-chloro-6-cyclopropyl-8-(trifluoromethyl)imidazo[1,2-a]pyridin-2-yl]carbonyl}-3-hydroxy-4-piperidinyl)-2-pyrrolidinone] are 150 nM and 480 nM.

Consider `O=C(c1nc2c(C(F)(F)F)cc(Br)cn2c1Cl)N1CC[C@H](N2CCCC2=O)[C@@H](O)C1` (racemic) [Compound 226, (±) trans-1-(1-{[6-bromo-3-chloro-8-(trifluoromethyl)imidazo[1,2-a]pyridin-2-yl]carbonyl}-3-hydroxy-4-piperidinyl)-2-pyrrolidinone], for which the figures for the EC50 in the assay on HCV Genotype 1B Replicon and in the assay with HCV Genotype 1A Replicon were 1450 nM and 2260 nM, respectively.

Take `O=C(c1nc2c(C(F)(F)F)cc(-c3ccoc3)cn2c1Cl)N1CC[C@H](N2CCCC2=O)[C@@H](O)C1` (racemic) [Compound 227, (±) trans-1-(1-{[3-chloro-6-(3-furanyl)-8-(trifluoromethyl)imidazo[1,2-a]pyridin-2-yl]carbonyl}-3-hydroxy-4-piperidinyl)-2-pyrrolidinone]: the EC50 in the assay with HCV Genotype 1B Replicon amounted to 340 nM; with HCV Genotype 1A Replicon, 690 nM. The matching figures for `O=C(c1nc2c(C(F)(F)F)cc(C3CC3)cn2c1Cl)N1CC[C@H](N2CCCC2=O)[C@H](O)C1` (racemic) [Compound 228, (±) cis-1-(1-{[3-chloro-6-cyclopropyl-8-(trifluoromethyl)imidazo[1,2-a]pyridin-2-yl]carbonyl}-3-hydroxy-4-piperidinyl)-2-pyrrolidinone]: 90 nM and 250 nM. The matching figures for `O=C(c1nc2c(C(F)(F)F)cc(Br)cn2c1Cl)N1CC[C@H](N2CCCC2=O)[C@H](O)C1` (racemic) [Compound 229, (±) cis-1-(1-{[6-bromo-3-chloro-8-(trifluoromethyl)imidazo[1,2-a]pyridin-2-yl]carbonyl}-3-hydroxy-4-piperidinyl)-2-pyrrolidinone]: 350 nM and 960 nM. Turning to `O=C(c1nc2c(C(F)(F)F)cc(-c3ccoc3)cn2c1Cl)N1CC[C@H](N2CCCC2=O)[C@H](O)C1` (racemic) [Compound 230, (±) cis-1-(1-{[3-chloro-6-(3-furanyl)-8-(trifluoromethyl)imidazo[1,2-a]pyridin-2-yl]carbonyl}-3-hydroxy-4-piperidinyl)-2-pyrrolidinone], the EC50 was 180 nM with HCV Genotype 1B Replicon and 420 nM with HCV Genotype 1A Replicon. In the case of `O=C(c1nc2c(C(F)(F)F)cc(C3CC3)cn2c1Cl)N1CC[C@H](N2CCOC2=O)[C@H](O)C1` (racemic) [Compound 231, (±) cis-3-(1-{[3-chloro-6-cyclopropyl-8-(trifluoromethyl)imidazo[1,2-a]pyridin-2-yl]carbonyl}-3-hydroxy-4-piperidinyl)-1,3-oxazolidin-2-one], the values for the EC50 in the assay on HCV Genotype 1B Replicon and with HCV Genotype 1A Replicon were 30 nM and 20 nM, respectively. The matching figures for `O=C(c1nc2c(C(F)(F)F)cc(Br)cn2c1Cl)N1CC[C@H](N2CCOC2=O)[C@H](O)C1` (racemic) [Compound 233, (±) cis-3-(1-{[6-bromo-3-chloro-8-(trifluoromethyl)imidazo[1,2-a]pyridin-2-yl]carbonyl}-3-hydroxy-4-piperidinyl)-1,3-oxazolidin-2-one]: 180 nM and 110 nM. For the compound `O=C(c1nc2c(C(F)(F)F)cc(C3CC3)cn2c1Cl)N1CC[C@H](N2CCOC2=O)[C@H](O)C1` (single isomer, unassigned; enantiomer 1) [Compound 234, 3-((cis)-1-{[3-chloro-6-cyclopropyl-8-(trifluoromethyl)imidazo[1,2-a]pyridin-2-yl]carbonyl}-3-hydroxy-4-piperidinyl)-1,3-oxazolidin-2-one (Enantiomer 1)], in the assay with HCV Genotype 1B Replicon, the EC50 stood at 50 nM.

Source of the values: patent publication US20100272680A1, “Piperidinyl Cyclic Amido Antiviral Agents” (priority 2009, published 2010).
